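Interpolation was linear, between the two tested concentrations surrounding the appropriate level; five concentrations were tested over 48 hours in 96-well plates. The concentration for full growth arrest is given as TGI.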
Experiments:
Test in all cases: NCI anticancer screen, dose series, 48 h
[1] = tested on: U251 CNS
[2] = tested on: UO-31 renal
[3] = tested on: HOP-18 NSCLC
[4] = tested on: SF-268 CNS
[5] = tested on: HCT-116 colon
[6] = tested on: SNB-78 CNS
[7] = tested on: RXF-631 renal
[8] = tested on: SNB-19 CNS
[9] = tested on: SF-539 CNS
[10] = tested on: IGROV1 ovarian
[11] = tested on: M14 melanoma
[12] = tested on: HT29 colon
[13] = tested on: UACC-257 melanoma
[14] = tested on: XF 498 CNS
[15] = tested on: 786-0 renal
[16] = tested on: OVCAR-3 ovarian
[17] = tested on: HCC-2998 colon
[18] = tested on: LXFL 529 NSCLC
[19] = tested on: MALME-3M melanoma
[20] = tested on: RXF 393 renal
[21] = tested on: A549 NSCLC
[22] = tested on: SK-MEL-2 melanoma
[23] = tested on: KM12 colon
[24] = tested on: CAKI-1 renal
[25] = tested on: RPMI-8226 leukemia
[26] = tested on: UACC-62 melanoma
[27] = tested on: NCI-H460 lung
[28] = tested on: HL-60(TB) leukemia
[29] = tested on: HOP-92 NSCLC
[30] = tested on: ACHN renal
[31] = tested on: DMS 273 small cell lung
[32] = tested on: CCRF-CEM leukemia
[33] = tested on: DLD-1 colon
[34] = tested on: SK-MEL-5 melanoma
[35] = tested on: SF-295 CNS
[36] = tested on: SNB-75 CNS
[37] = tested on: K-562 leukemia
[38] = tested on: SN12C renal
[39] = tested on: TK-10 renal
[40] = tested on: SK-OV-3 ovarian
[41] = tested on: MOLT-4 leukemia
[42] = tested on: NCI-H23 lung
[43] = tested on: OVCAR-4 ovarian
[44] = tested on: COLO 205 colon
[45] = tested on: M19-MEL melanoma
[46] = tested on: SR leukemia
[47] = tested on: A498 renal
[48] = tested on: OVCAR-8 ovarian
[49] = tested on: DMS 114 small cell lung
[50] = tested on: NCI-H226 lung
[51] = tested on: LOX IMVI melanoma
[52] = tested on: NCI-H522 lung
[53] = tested on: KM20L2 colon
[54] = tested on: SK-MEL-28 melanoma
[55] = tested on: HOP-62 NSCLC
[56] = tested on: OVCAR-5 ovarian
[57] = tested on: EKVX NSCLC
[58] = tested on: SW-620 colon
[59] = tested on: HCT-15 colon

CCOC(OCC)(OCC)C(Br)CC (stereo unspecified)
TGI [1]: > 100 µM | TGI [2]: > 100 µM | TGI [3]: > 100 µM | TGI [4]: > 100 µM | TGI [5]: 19 µM | TGI [6]: > 100 µM | TGI [7]: > 100 µM | TGI [8]: > 100 µM | TGI [9]: > 100 µM | TGI [10]: > 100 µM | TGI [11]: > 100 µM | TGI [12]: > 100 µM | TGI [13]: > 100 µM | TGI [14]: > 100 µM | TGI [15]: 37.8 µM | TGI [16]: > 100 µM | TGI [17]: > 100 µM | TGI [18]: > 100 µM | TGI [19]: > 100 µM | TGI [20]: > 100 µM | TGI [21]: > 100 µM | TGI [22]: > 100 µM | TGI [23]: > 100 µM | TGI [24]: > 100 µM | TGI [25]: 47.5 µM | TGI [26]: > 100 µM | TGI [27]: > 100 µM | TGI [28]: > 100 µM | TGI [29]: > 100 µM | TGI [30]: > 100 µM | TGI [31]: 34.5 µM | TGI [32]: > 100 µM | TGI [33]: > 100 µM | TGI [34]: > 100 µM | TGI [35]: > 100 µM | TGI [36]: > 100 µM | TGI [37]: > 100 µM | TGI [38]: > 100 µM | TGI [39]: > 100 µM | TGI [40]: > 100 µM | TGI [41]: > 100 µM | TGI [42]: > 100 µM | TGI [43]: > 100 µM | TGI [44]: > 100 µM | TGI [45]: > 100 µM | TGI [46]: 49 µM | TGI [47]: > 100 µM | TGI [48]: > 100 µM | TGI [49]: 25.3 µM | TGI [50]: > 100 µM | TGI [51]: > 100 µM | TGI [52]: > 100 µM | TGI [53]: > 100 µM | TGI [54]: > 100 µM | TGI [55]: > 100 µM | TGI [56]: > 100 µM | TGI [57]: > 100 µM

COC1=CC(=O)C(O)=C(CC2(C)C(C)CCC3(C)C2CCCC3(C)C)C1=O (stereo unspecified)
TGI [1]: 13.8 µM | TGI [2]: 17.2 µM | TGI [3]: 13 µM | TGI [4]: 25.4 µM | TGI [5]: 21.3 µM | TGI [6]: > 100 µM | TGI [7]: > 100 µM | TGI [58]: 30.5 µM | TGI [8]: 19.3 µM | TGI [9]: 9.49 µM | TGI [10]: 28.5 µM | TGI [11]: 7.65 µM | TGI [12]: 23.1 µM | TGI [13]: 21.9 µM | TGI [14]: 22.4 µM | TGI [15]: 19.1 µM | TGI [16]: 26.5 µM | TGI [17]: 17.8 µM | TGI [18]: 22.7 µM | TGI [19]: 13.4 µM | TGI [20]: 7.79 µM | TGI [21]: 11.6 µM | TGI [22]: 15.5 µM | TGI [23]: 27.3 µM | TGI [24]: 16.7 µM | TGI [25]: 90.1 µM | TGI [26]: 5.96 µM | TGI [27]: 10.6 µM | TGI [28]: 8.53 µM | TGI [29]: 7.63 µM | TGI [59]: 14.8 µM | TGI [30]: 29.5 µM | TGI [31]: 18.3 µM | TGI [32]: 11.5 µM | TGI [33]: 45.1 µM | TGI [34]: 12.2 µM | TGI [35]: 16.3 µM | TGI [36]: 19 µM | TGI [37]: > 100 µM | TGI [38]: 15.3 µM | TGI [39]: 37.2 µM | TGI [40]: > 100 µM | TGI [41]: 18.5 µM | TGI [42]: 8.05 µM | TGI [43]: > 100 µM | TGI [44]: 19.2 µM | TGI [45]: 7.07 µM | TGI [46]: 12.8 µM | TGI [47]: 22.1 µM | TGI [48]: 26.2 µM | TGI [49]: 8.99 µM | TGI [50]: 9.91 µM | TGI [51]: 23.2 µM | TGI [52]: 13 µM | TGI [53]: 13.2 µM | TGI [54]: 18.2 µM | TGI [55]: 10.7 µM | TGI [56]: 21.9 µM | TGI [57]: 69.7 µM

From PubChem BioAssay (NCI)
